# Values of other authors, collected in US20080031932A1, “Transdermal atomoxetine formulations and associated methods” (Watson Laboratories, Inc., priority 2006, published 2008).
# What was measured:
# serotonin reuptake = serotonin reuptake (Homo sapiens, UniProt P31645)
# [1] = molecular target: norepinephrine reuptake transporter (Homo sapiens, UniProt P23975); conditions: compared to atomoxetine
# Sequence of norepinephrine reuptake transporter (P23975 whole entry): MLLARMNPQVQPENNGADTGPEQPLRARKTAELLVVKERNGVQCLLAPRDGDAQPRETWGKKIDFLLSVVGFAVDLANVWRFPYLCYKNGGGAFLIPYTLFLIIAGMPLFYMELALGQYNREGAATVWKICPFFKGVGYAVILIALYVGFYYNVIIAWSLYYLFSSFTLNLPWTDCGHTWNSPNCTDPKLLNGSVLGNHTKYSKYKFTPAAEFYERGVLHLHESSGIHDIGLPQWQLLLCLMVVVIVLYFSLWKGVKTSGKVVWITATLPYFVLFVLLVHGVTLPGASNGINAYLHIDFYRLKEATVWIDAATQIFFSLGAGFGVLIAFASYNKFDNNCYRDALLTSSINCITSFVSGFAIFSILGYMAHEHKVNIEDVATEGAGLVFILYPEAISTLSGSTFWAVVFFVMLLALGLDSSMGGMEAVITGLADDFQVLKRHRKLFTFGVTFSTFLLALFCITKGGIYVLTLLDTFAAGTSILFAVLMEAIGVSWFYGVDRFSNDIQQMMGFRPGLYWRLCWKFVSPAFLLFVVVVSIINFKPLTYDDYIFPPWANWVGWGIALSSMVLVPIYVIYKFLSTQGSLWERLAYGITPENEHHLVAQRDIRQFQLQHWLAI
# Sequence of serotonin reuptake (P31645 whole entry): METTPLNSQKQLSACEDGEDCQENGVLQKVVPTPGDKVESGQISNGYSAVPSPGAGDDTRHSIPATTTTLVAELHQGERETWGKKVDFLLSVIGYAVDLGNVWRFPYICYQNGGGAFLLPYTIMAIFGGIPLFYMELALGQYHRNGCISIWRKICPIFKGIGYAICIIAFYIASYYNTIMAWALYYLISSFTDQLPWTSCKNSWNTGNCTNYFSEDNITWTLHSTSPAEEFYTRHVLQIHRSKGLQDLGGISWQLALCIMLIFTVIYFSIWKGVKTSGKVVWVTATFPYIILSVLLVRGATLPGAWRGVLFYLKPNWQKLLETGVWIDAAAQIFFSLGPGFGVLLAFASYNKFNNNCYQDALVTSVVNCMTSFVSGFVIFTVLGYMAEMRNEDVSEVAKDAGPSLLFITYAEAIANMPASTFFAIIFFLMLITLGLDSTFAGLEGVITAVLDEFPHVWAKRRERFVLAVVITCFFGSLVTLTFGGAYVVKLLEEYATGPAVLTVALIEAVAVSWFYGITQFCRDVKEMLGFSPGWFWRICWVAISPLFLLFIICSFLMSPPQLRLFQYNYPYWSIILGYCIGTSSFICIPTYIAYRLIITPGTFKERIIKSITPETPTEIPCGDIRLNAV
SMILES,plasma half-life (individuals having normal activity in the CYP2D6 pathway),half-life (individuals with reduced activity in the CYP2D6 pathway (poor metabolizers)),affinity to other receptor systems (other receptor systems),serotonin reuptake inhibition (serotonin reuptake),inhibitory activity to the norepinephrine reuptake transporter [1]
"CNCCC(Oc1ccccc1C)c1ccccc1 (single isomer, unassigned; (-)) [atomoxetine, (−)-N-methyl-3-phenyl-3-(o-tolyloxy)-propylamine]",about 5 hours,about 24 hours,–,–,–
"CNCCC(Oc1ccc(O)cc1C)c1ccccc1 (stereo not drawn) [Example 4HA, 4-hydroxyatomoxetine]",–,–,little affinity,pharmacologically active serotonin reuptake inhibitor,–
"Cc1ccccc1OC(CCN)c1ccccc1 (stereo not drawn) [NDA, N-desmethylatomoxetine]",–,–,little affinity,–,less active
